Assay results as given in patent US20080161273A1, “Method of Using Adapalene in Acne Maintenance Therapy” (GALDERMA RESEARCH & DEVELOPMENT, priority 2004, published 2008).
Read-outs that look alike come from different tables or passages of the source.

Key:
[1] = applied as monotherapy, versus tazarotene and tretinoin formulations, cited from earlier work
[2] = 16-week maintenance therapy study: safety, local facial tolerability, adverse events, discontinuation; type: in vivo, human
Description: The efficacy and safety of the adapalene gel 0.1% (Galderma Laboratories, LP, Ft. Worth, Tex.) as a maintenance therapy were compared to gel vehicle in a randomized, multicenter, vehicle-controlled, investigator-blind, parallel group study conducted at 34 centers in the United States between Nov. 13, 2003 and May 25, 2004. This study was designed to set a high threshold for achieving success. […] These subjects were re-randomized consecutively in a 1:1 ratio to receive either adapalene gel 0.1% or adapalene gel vehicle once-daily in the evening for an additional 16 weeks. Subjects were stratified by the treatment assignment received in the previous study using an interactive voice responsive system. The randomization schedule remained blinded from those involved in the clinical conduct of the study. The integrity of the blinding was ensured by packaging the topical medication in identical tubes and requiring a third party other than the investigator/evaluator to dispense the medication.
Safety and tolerability were assessed through evaluations of local facial tolerability and adverse events. At each visit, the investigator rated erythema, scaling, dryness, and stinging/burning on a scale ranging from 0 (none) to 3 (severe). Mean scores at each postbaseline visit and worst score (worst observation recorded for a subject during the post-baseline period) were recorded. Adverse events were also evaluated at each visit.
Three study populations were analyzed. The safety population was defined as all patients randomized and treated at least once. The intent-to-treat (ITT) population included all randomized subjects who were dispensed study medication. The per-protocol (PP) population included all randomized subjects without any major protocol deviations.

[3] = 5-question subject satisfaction survey at last visit of the maintenance study; type: in vivo, human; conditions: P=0.94 vs vehicle
Description: The primary efficacy variable was the failure rate at week 16, defined as the percentage of subjects unable to maintain 50% of total lesion count improvement from the previous 12-week combination therapy study (e.g., a subject entering the maintenance phase after having lost 40 lesions in the combination study was considered as a failure if the lesion count at the end of the maintenance study was increased by more than 20 lesions). Data from this assessment is presented graphically herein as a maintenance rate, which is simply 100% minus the failure rate. Secondary efficacy variables included lesion counts (total, inflammatory and non inflammatory), failure rates for inflammatory and non-inflammatory lesions, as well as global severity and global improvement of the disease. At the last visit, subject satisfaction was assessed via a 5-question survey.

acne vulgaris = assay: 16-week maintenance therapy study after adapalene-doxycycline combination therapy: efficacy (maintenance rate, lesion counts, global severity); type: in vivo, human
Description: The efficacy and safety of the adapalene gel 0.1% (Galderma Laboratories, LP, Ft. Worth, Tex.) as a maintenance therapy were compared to gel vehicle in a randomized, multicenter, vehicle-controlled, investigator-blind, parallel group study conducted at 34 centers in the United States between Nov. 13, 2003 and May 25, 2004. This study was designed to set a high threshold for achieving success. […] These subjects were re-randomized consecutively in a 1:1 ratio to receive either adapalene gel 0.1% or adapalene gel vehicle once-daily in the evening for an additional 16 weeks. Subjects were stratified by the treatment assignment received in the previous study using an interactive voice responsive system. The randomization schedule remained blinded from those involved in the clinical conduct of the study. The integrity of the blinding was ensured by packaging the topical medication in identical tubes and requiring a third party other than the investigator/evaluator to dispense the medication. Exclusion criteria prohibited enrollment of subjects with acne requiring isotretinoin therapy or other dermatologic conditions requiring interfering treatment. Women were excluded if they were pregnant, nursing, or planning a pregnancy as were men with facial hair that would interfere with the assessments. Subjects were provided Cetaphil® daily facial moisturizer SPF 15 (Galderma Laboratories, LP., Ft Worth, Tex.) to use as needed for the symptomatic relief of skin dryness or irritation. Evaluations for this study occurred at baseline and at weeks 4, 8, 12, and 16. The final visit from the previous 12-week combination study served as the baseline visit for this 16-week maintenance study. The primary efficacy variable was the failure rate at week 16, defined as the percentage of subjects unable to maintain 50% of total lesion count improvement from the previous 12-week combination therapy study (e.g., a subject entering the maintenance phase after having lost 40 lesions in the combination study was considered as a failure if the lesion count at the end of the maintenance study was increased by more than 20 lesions). Data from this assessment is presented graphically herein as a maintenance rate, which is simply 100% minus the failure rate. Secondary efficacy variables included lesion counts (total, inflammatory and non inflammatory), failure rates for inflammatory and non-inflammatory lesions, as well as global severity and global improvement of the disease. At the last visit, subject satisfaction was assessed via a 5-question survey. All data analyses were carried out according to a pre-established analysis plan. A sample size of 113 subjects per group was deemed necessary to detect a statistically significant difference in failure rate between treatment groups based on the use of a 2-tailed test with […] and a power of 90%; an assumption of a 15% efficacy difference between the 2 treatment groups; and a dropout rate of 10%. Three study populations were analyzed. The safety population was defined as all patients randomized and treated at least once. The intent-to-treat (ITT) population included all randomized subjects who were dispensed study medication. The per-protocol (PP) population included all randomized subjects without any major protocol deviations. […] Analyses for efficacy were performed on week 16 data for the ITT population and the PP population. Last observation carried forward (LOCF) methodology was used to account for missing data for the ITT population analysis (lesion counts). In addition, all subjects with missing data at week 16 were considered failures for the failure rate analysis (worst case). Age was tested at baseline with the analysis of variance (ANOVA) model with treatment, center, and their interaction as factors. All other variables were analyzed by using the Cochran-Mantel-Haenzsel (CMH) test controlling for “analysis center” and previous treatment for both the ITT and PP populations. […]

COc1ccc(-c2ccc3cc(C(=O)O)ccc3c2)cc1C12CC3CC(CC(C3)C1)C2 [adapalene, 6-[3-(1-adamantyl)-4-methoxyphenyl]-2-naphtoic acid]
tolerability / cutaneous irritation profile versus other topical retinoids [1]: more favorable cutaneous irritation profile | tolerability / cutaneous irritation profile versus other topical retinoids ([1]; listed as Adapalene): more favorable tolerability profile | overall safety and tolerability ([2]; 16-week study): safe and well tolerated | subjects experiencing adverse events ([2]; 16-week study): 25% | subjects with treatment-related adverse events (percentage) ([2]; 16-week study): 2.4% | subjects with treatment-related adverse events (number) ([2]; 16-week study, 126 subjects in group): 3 subjects | mean worst score for each local cutaneous tolerability variable, large majority of subjects ([2]; scale none, mild, moderate, severe): none or mild | subjects not bothered by side effects [3]: 90% | lesion counts during the course of the study versus baseline (acne vulgaris; 16 weeks, vehicle group gradually increased): remained stable or decreased | subjects "clear" or "almost clear" in global severity assessment (acne vulgaris; P=0.005 for distribution of severity scores vs vehicle): 27% | global assessment of improvement versus vehicle (acne vulgaris; P=0.01): significant advantages | total lesion counts relative to vehicle (acne vulgaris; end point week 16, ITT, LOCF, P=0.005): significantly lower | inflammatory lesion counts relative to vehicle (acne vulgaris; end point week 16, ITT, LOCF, P=0.01): significantly lower | noninflammatory lesion counts relative to vehicle (acne vulgaris; end point week 16, ITT, LOCF, P=0.02): significantly lower | maintenance rate, total lesion counts (subjects maintaining at least 50% of improvement from previous combination study) (acne vulgaris; week 16, ITT, worst case (missing data = failure), once-daily for 16 weeks, P<0.001 vs vehicle): 75%
